# Assay results published in patent US10688093B2, “Methods, compositions, and uses of novel Fyn kinase inhibitors” (priority 2015, dated 2020).
# Target: full-length recombinant human FYN A (Homo sapiens (Human), UniProt P06241)
# Assay: ADP-Glo Kinase Assay of FYN kinase inhibition
# Format: biochemical
# Details: secondary screen, re-synthesized and expanded compounds
# Method in brief: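 GST-tagged full-length FYN A (baculovirus, Sf9) at 3 pg preincubated 30 min RT with compound (10-point 3-fold series from 10 μM) in Tris pH 7.5/MgCl2 buffer. 12-mer tyrosine peptide plus 12.5 pmol ATP added, 90 min RT; ADP measured by ADP-Glo luminescence, IC50 from dose-response.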
# full-length recombinant human FYN A, sequence (P06241 whole entry): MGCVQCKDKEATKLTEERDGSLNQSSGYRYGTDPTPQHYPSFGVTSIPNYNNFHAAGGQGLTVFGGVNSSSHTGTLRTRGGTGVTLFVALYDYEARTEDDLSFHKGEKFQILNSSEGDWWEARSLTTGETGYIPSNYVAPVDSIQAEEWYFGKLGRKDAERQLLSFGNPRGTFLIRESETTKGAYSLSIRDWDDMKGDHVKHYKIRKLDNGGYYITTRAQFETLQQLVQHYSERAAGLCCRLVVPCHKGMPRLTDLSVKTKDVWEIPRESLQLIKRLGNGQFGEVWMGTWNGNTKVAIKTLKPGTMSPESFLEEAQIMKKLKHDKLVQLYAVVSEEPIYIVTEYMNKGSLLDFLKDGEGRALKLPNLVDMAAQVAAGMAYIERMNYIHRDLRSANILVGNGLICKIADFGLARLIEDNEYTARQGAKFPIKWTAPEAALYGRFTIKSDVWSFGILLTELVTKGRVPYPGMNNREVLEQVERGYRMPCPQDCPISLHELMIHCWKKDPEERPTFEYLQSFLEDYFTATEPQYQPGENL
row,SMILES,IC50 [nM]
1,"COc1cncc(-c2cnc3sc(NCC4CCOCC4)nn23)c1 [BF000714923, 5-(5-methoxy-3-pyridyl)-N-(tetra-hydropyran-4-ylmethyl)-imidazo[2,1-b][1,3,4]-thiadiazol-2-amine]",293
2,"COc1cncc(-c2cnc3sc(NCc4cccs4)nn23)c1 [BF000714968, 5-(5-methoxy-3-pyridyl)-N-(2-thienyl-methyl)-imidazo[2,1-b][1,3,4]-thiadiazol-2-amine]",437
3,"COc1cncc(-c2cnc3sc(NCc4ccc5c(c4)OCO5)nn23)c1 [BF000714981, N-(1,3-benzodioxol-5-ylmethyl)-5-(5-methoxy-3-pyridyl)-imidazo[2,1-b][1,3,4]-thiadiazol-2-amine]",289
4,"CN(C)C(=O)c1cccc(-c2cnc3sc(NCC4CCOCC4)nn23)c1 [BF000715802, N,N-dimethyl-3-[2-(tetra-hydropyran-4-ylmethyl-amino)-imidazo[2,1-b][1,3,4]-thiadiazol-5-yl]benzamide]",1360
5,"COc1ccc(-c2cnc3sc(NC4CCC(O)CC4)nn23)cc1OC (stereo not drawn) [BF000717406, 4-[[5-(3,4-dimethoxy-phenyl)-imidazo[2,1-b][1,3,4]-thiadiazol-2-yl]amino]-cyclohexanol]",440
6,"CN(C)C(=O)c1cccc(-c2cnc3sc(NC4CCC(O)CC4)nn23)c1 (stereo not drawn) [BF000717418, 3-[2-[(4-hydroxy-cyclohexyl)-amino]-imidazo[2,1-b][1,3,4]-thiadiazol-5-yl]-N,N-dimethyl-benzamide]",288
7,"COc1cc(-c2cnc3sc(NCC4CCOCC4)nn23)ccc1O [BF000717555, 2-methoxy-4-[2-(tetrahydro-pyran-4-ylmethyl-amino)-imidazo[2,1-b][1,3,4]-thiadiazol-5-yl]phenol]",710
8,"OCCCNc1ccc2ncc(-c3ccncc3)n2n1 [BF000722253, 3-[[3-(4-pyridyl)-imidazo[1,2-b]pyridazin-6-yl]amino]-propan-1-ol]",538
9,"COc1cc(-c2ccc3ncc(-c4cccc(NC(C)=O)c4)n3n2)ccc1O [BF000726183, N-(3-[6-(4-hydroxy-3-methoxy-phenyl)-imidazo[1,2-b]pyridazin-3-yl]phenyl]-acatamide]",167
10,OCc1cccc(-c2cnc3ccc(-c4cccc(O)c4)nn23)c1 [BF000726195],1170
11,"COc1ccc(-c2ccc3ncc(-c4cccc(NC(C)=O)c4)n3n2)cc1OC [BF000726345, N-[3-[6-(3,4-dimethoxy-phenyl)-imidazo[1,2-a]pyridazin-3-yl]phenyl]-acatamide]",313
12,"CC(=O)Nc1cccc(-c2ccc3ncc(-c4cccc(NC(C)=O)c4)n3n2)c1 [BF000726346, N-[3-[3-(3-acetamido-phenyl)-imidazo[1,2-b]pyridazin-6-yl]phenyl]-acetamide]",648
13,"Oc1cccc(-c2cnc3ccc(-c4ccncc4)nn23)c1 [BF000726352, 3-[6-(4-pyridyl)-imidazo[1,2-b]pyridazin-3-yl]phenol]",342
14,"OCc1cccc(-c2cnc3ccc(-c4ccncc4)nn23)c1 [BF000726364, [3-[6-(4-pyridyl)-imidpzo[1,2-b]pyridazin-3-yl]phenyl]-methanol]",973
15,"COc1ccc(-c2ccc3ncc(-c4cccc(CO)c4)n3n2)cc1OC [BF000726366, [3-[6-(3,4-dimethoxy-phenyl)-imidazo[1,2-b]pyridazin-3-yl]phenyl]-methanol]",893
16,"CC(=O)Nc1cccc(-c2ccc3ncc(-c4cccc(CO)c4)n3n2)c1 [BF000726367, N-[3-[3-[3-(hydroxy-methyl)phenyl]-imidazo[1,2-b]pyridazin-6-yl]phenyl]-acetamide]",1520
17,"COc1cc(-c2cnc3ccc(-c4ccc(OC)c(OC)c4)nn23)ccc1O [BF000726453, 4-[6-(3,4-dimethoxy-phenyl)-imidazo[l,2-b]pyridazin-3-yl]-2-methoxy-phenol]",39.4
18,"COc1cc(-c2cnc3ccc(-c4cccc(NC(C)=O)c4)nn23)ccc1O [BF000726454, N-[3-[3-(4-hydroxy-3-methoxy-phenyl)-imidazo[1,2-b]pyridazin-6-yl]phenyl]-acetamide]",104
